Several values for one entry are separate records, joined by “and”; a condition that tells them apart may be missing. Equal entries are not always repeated.
Experiments:
Type in all cases: cell-based
[1] = system: Bacillus subtilis W168; experiment: Minimum inhibitory concentration in LB broth, B. subtilis; conditions: for Relative to AgNO3: efficacy per mole from MIC values
[2] = system: Staphylococcus aureus (ATCC 25923); experiment: Disk sensitivity test (modified Kirby-Bauer), S. aureus;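 also: Compound-loaded filter disks on LB agar plates seeded with a confluent bacterial lawn, compound dissolved in DMSO, plates kept overnight at 37 °C, then inhibition zone around disk measured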
[3] = system: Staphylococcus aureus (ATCC 25923); experiment: Minimum inhibitory concentration in LB broth, S. aureus; conditions: for Relative to AgNO3: efficacy per mole from MIC values
[4] = system: Escherichia coli HB101; experiment: Disk sensitivity test (modified Kirby-Bauer), E. coli;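 also: filter disk loaded with compound in DMSO laid on an LB agar bacterial lawn, kept overnight at 37 °C, then the inhibition zone around the disk is measured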
[5] = system: Escherichia coli HB101; experiment: Minimum inhibitory concentration in LB broth, E. coli; conditions: for Relative to AgNO3: efficacy per mole from MIC values;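 as to all read-outs here: broth dilution MIC, test compounds first taken up in DMSO, then serially diluted in LB medium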
[6] = system: Pseudomonas aeruginosa PAO1; experiment: Disk sensitivity test (modified Kirby-Bauer), P. aeruginosa;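 also: Compound-loaded filter disks on LB agar lawns, DMSO as solvent, zone of inhibition around each disk read after overnight incubation at 37 °C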
Procedure: Filter disks were provided as sterile filter paper (about 6 mm in diameter) and spotted with 20 μL of a selected compound. Each compound was initially dissolved in dimethylsulfoxide (DMSO); any subsequent dilutions were also made in DMSO. Each filter was placed on an LB agar plate spread with 100 μL of a bacterial culture that had been grown overnight in suitable LB broth. Plates were incubated overnight at 37° C., after which, the extent of growth inhibition around each filter disk was measured. Bacterial strains included Staphylococcus aureus (ATCC 25923), Pseudomonas aeruginosa PAO1, Bacillus subtilis W168 and Escherichia coli HB101. […] The latter two strains are non-pathogenic Gram-positive and Gram-negative bacterial strains, respectively.

[7] = system: Bacillus subtilis W168; experiment: Disk sensitivity test (modified Kirby-Bauer), B. subtilis;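 also: Compound-loaded filter disks on LB agar plates seeded with a bacterial lawn, plates held overnight at 37 °C, then the clear zone around each disk measured, compounds in DMSO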
[8] = system: Pseudomonas aeruginosa PAO1; experiment: Minimum inhibitory concentration in LB broth, P. aeruginosa; conditions: for Relative to AgNO3: efficacy per mole from MIC values
[9] = system: Gram positive and Gram negative bacteria; experiment: Antimicrobial activity, summary of TABLES 16-18
Procedure: The new class of fluorinated triazapentadiene compounds with and without metal complexation as described herein were analyzed for antibacterial activity against several bacterial strains (both Gram positive and Gram negative). Methods for antimicrobial analysis included a modified Kirby-Bauer method and a determination of their minimum inhibitory concentrations. In brief, the modified Kirby-Bauer method relied on placement of a filter disk impregnated with a desired compound on a solid growth medium. Bacteria were grown to a confluent lawn and the extent of growth inhibition was measured (e.g., as an extent/percentage of a clear zone on the disk and/or solid medium).
For MIC assessment, compounds were initially dissolved in DMSO and serial dilutions of soluble compounds were made in LB broth.

[10] = 1.00 × 10^0 μg/ml (printed 5.9 × 10^−6 mM)
[11] = 1.00 × 10^1 μg/ml (5.9 × 10^−5 mM)
[12] = 1.00 × 10^2 μg/ml (5.9 × 10^−4 mM [sic])
[13] = 1.00 × 10^3 μg/ml (printed 5.9 × 10^−3 mM)
[14] = 1.00 × 10^4 μg/ml (printed 5.9 × 10^−2 mM)

## O=[N+]([O-])[O-].[Ag+] [AgNO3, reference compound]
[1]
  MIC: 25.00 μg/ml and 1.47 × 10^−1 mM
  Relative to AgNO3: 1.00
[2]; [10]
  Diameter of the zone of growth inhibition: 6.0 (NZ) mm
[2]; [11]
  Diameter of the zone of growth inhibition: 7.0 mm
[2]; [12]
  Diameter of the zone of growth inhibition: 8.5 mm
[2]; [13]
  Diameter of the zone of growth inhibition: 9.0 mm
[2]; [14]
  Diameter of the zone of growth inhibition: 10.5 mm
[3]
  MIC: 12.50 μg/ml and 7.36 × 10^−2 mM
  Relative to AgNO3: 1.00
[4]; [10]
  Diameter of the zone of growth inhibition: 7.0 mm
[4]; [11]
  Diameter of the zone of growth inhibition: 8.5 mm
[4]; [12]
  Diameter of the zone of growth inhibition: 13.0 mm
[4]; [13]
  Diameter of the zone of growth inhibition: 14.0 mm
[4]; [14]
  Diameter of the zone of growth inhibition: 15.0 mm
[5]
  MIC: 10.0 μg/ml and 5.89 × 10^−2 mM
  Relative to AgNO3: 1.00
[6]; [10]
  Diameter of the zone of growth inhibition: 6.0 (NZ) mm
[6]; [11]
  Diameter of the zone of growth inhibition: 6.0 (NZ) mm
[6]; [12]
  Diameter of the zone of growth inhibition: 9.5 mm
[6]; [13]
  Diameter of the zone of growth inhibition: 12.5 mm
[6]; [14]
  Diameter of the zone of growth inhibition: 16.0 mm
[7]; [10]
  Diameter of the zone of growth inhibition: 9.0 mm
[7]; [11]
  Diameter of the zone of growth inhibition: 9.5 mm
[7]; [12]
  Diameter of the zone of growth inhibition: 13.0 mm
[7]; [13]
  Diameter of the zone of growth inhibition: 13.0 mm
[7]; (printed 5.9 × 10^−2 mM)
  Diameter of the zone of growth inhibition: 16.0 mm
[8]
  MIC: 3.12 μg/ml and 1.84 × 10^−2 mM
  Relative to AgNO3: 1.00

## FC(F)(F)C(F)(F)C(F)(F)C(=Nc1c(Cl)cccc1Cl)N=C([N]([Ag])c1c(Cl)cccc1Cl)C(F)(F)C(F)(F)C(F)(F)F [[N{(C3F7)C(2,6-Cl2C6H3)N}2]Ag]
[1]
  MIC: 4.27 × 10^−1 μg/ml and 5.31 × 10^−4 mM
  Relative to AgNO3: 276.84
[9]
  antimicrobial activity (in words): Effective
[2]; 5.7 × 10^0 mM
  Diameter of the zone of growth inhibition: 16.5 mm
[2]; 5.7 × 10^1 mM
  Diameter of the zone of growth inhibition: 20.0 mm
[2]; 5.7 × 10^−1 mM
  Diameter of the zone of growth inhibition: 15.0 mm
[2]; 5.7 × 10^−2 mM
  Diameter of the zone of growth inhibition: 14.5 mm
[2]; 5.7 × 10^−3 mM
  Diameter of the zone of growth inhibition: 11.0 mm
[2]; 5.7 × 10^−4 mM
  Diameter of the zone of growth inhibition: 6.0 (NZ) mm
[2]; 5.7 × 10^−5 mM
  Diameter of the zone of growth inhibition: 6.0 (NZ) mm
[3]
  MIC: 0.853 μg/ml and 1.12 × 10^−2 mM
  Relative to AgNO3: 69.43
[4]; 5.7 × 10^0 mM
  Diameter of the zone of growth inhibition: 16.0 mm
[4]; 5.7 × 10^1 mM
  Diameter of the zone of growth inhibition: 15.5 mm
[4]; 5.7 × 10^−1 mM
  Diameter of the zone of growth inhibition: 11.0 mm
[4]; 5.7 × 10^−2 mM
  Diameter of the zone of growth inhibition: 9.0 mm
[4]; 5.7 × 10^−3 mM
  Diameter of the zone of growth inhibition: 7.0 mm
[5]
  MIC: 72.20 μg/ml and 8.98 × 10^−2 mM
  sensitivity of the bacteria to the compound (in words): most sensitive
  Relative to AgNO3: 6.56 × 10^−1
[6]; 5.7 × 10^0 mM
  Diameter of the zone of growth inhibition: 13.5 mm
[6]; 5.7 × 10^1 mM
  Diameter of the zone of growth inhibition: 15.0 mm
[6]; 5.7 × 10^−1 mM
  Diameter of the zone of growth inhibition: 10.0 mm
[6]; 5.7 × 10^−2 mM
  Diameter of the zone of growth inhibition: 7.0 mm
[6]; 5.7 × 10^−3 mM
  Diameter of the zone of growth inhibition: 6.0 (NZ) mm
[7]; 5.7 × 10^0 mM
  Diameter of the zone of growth inhibition: 21.0 mm
[7]; 5.7 × 10^1 mM
  Diameter of the zone of growth inhibition: 19.5 mm
[7]; 5.7 × 10^−1 mM
  Diameter of the zone of growth inhibition: 18.0 mm
[7]; 5.7 × 10^−2 mM
  Diameter of the zone of growth inhibition: 19.0 mm
[7]; 5.7 × 10^−3 mM
  Diameter of the zone of growth inhibition: 12.0 mm
[7]; 5.7 × 10^−4 mM
  Diameter of the zone of growth inhibition: 6.0 (NZ) mm
[7]; 5.7 × 10^−5 mM
  Diameter of the zone of growth inhibition: 6.0 (NZ) mm
[8]
  MIC: 72.20 μg/ml and 8.98 × 10^−2 mM
  sensitivity of the bacteria to the compound (in words): most sensitive
  Relative to AgNO3: 2.05 × 10^−1
